Data on three molecules can be found in patent publication US12329722B2, “Finished pharmaceutical form with individual medicine dosing capability (embodiments) and methods of its production and use” (PSIMOS, INC., priority 2016, dated 2025).

Type in all cases: physicochemical
Series [1] is described as follows: solubility in water/alcohol solutions. To be noted: water/alcohol solutions of the abovementioned concentrations.
A short description of series [2]: desorption of applied medicine from porous media to potable water. The note with it: 50 ml of potable water.
The nature of series [3]: quantity of medicine that can be applied on unit area of porous media with a jet printer. The note with it: fiberglass membrane made by Algstrem.
Protocol: Using a jet printer with rechargeable cartridges the solution was applied on a 236.5 cm^2 specimen of media made from cellulose filtering material (size 21.5*1 1 cm^2, format Letter) with different printing qualities in dpi and different area filling densities. […] Following that the quantity of acetylsalicylic acid applied per unit area was analyzed depending on software controlled printing quality (in dpi). Using the specially plotted graduation curve the required printing densities in dpi were selected for applying 130 mg per 0.25 cm^2, or 520 mg/cm^2. The specimen was dried in a hot air flow for guaranteed removal of the water/alcohol solvent and packaged in a polymer container protecting the specimen from direct sunlight. Then the specimen was removed from the container and placed in a glass with water.
A similar procedure was conducted for d, 1-2-(4-isobutylphenyl)-propionic acid (the active pharmaceutical substance of the Ibuprofen medicine) and a fiberglass membrane made by Algstrem, USA, used in immunology.
A short description of series [4]: stability of medicine during application with a piezoelectric apparatus (chromatography). The note with it: heat from piezoelectric apparatus above 40 degrees Celsius. The source says:
Initially, at S110, a head 216 of a printing device 208 is dismantled. The head 216 of the printing device 208 may include a plurality of head nozzles 218 operative to dispense a liquid therefrom. The printing device 208 may be a piezoelectric apparatus, or any other suitable apparatus. The printing device 208 may accurately (e.g., within 5% of a nominal range) output a range of drop sizes (e.g., 2-80 picolitres) at a relatively high dispensing frequency (e.g., 1000-3000 drops per second). The printing device 208 may operate based on an inverse piezoelectric effect, whereby a piezoelectric element is deformed under the influence of an electric field. […] In one or more embodiments, the printing device 208 may include a thermo sensor 230 to control the temperature of the head 216 to avoid heating the medicine to a temperature that results in decomposition of the medicine. […] It is noted that the ranges of acceptable temperatures may be analyzed, as cooling may affect viscosity of the medicine. […] The inventors note that, per their research on the use of vitamin C in a piezoelectric apparatus, during application of the medicine to the porous media, heat resulting from the use of the piezoelectric apparatus occurred above 40 degrees Celsius, as vitamin C was destroyed and its presence was not detected during chromatography. […]

Consider `CC(=O)Oc1ccccc1C(=O)O` [acetylsalicylic acid], for which the “solubility in water/alcohol solutions” value in series [1] is reported as about 100%.

Turning to `CC(C)Cc1ccc(C(C)C(=O)O)cc1` (centres unmarked) [d, 1-2-(4-isobutylphenyl)-propionic acid], the “quantity desorbed to potable water” value in series [2] (1 cm^2 fiberglass membrane (Algstrem), 300±2 mg applied) came to 246±2. In series [2] (1 cm^2 fiberglass membrane), the “share of applied quantity desorbed to potable water” value came out at 82%. Further, the “possible quantity that can be applied on 1 cm^2 (unit area)” value in series [3] worked out at 300 ± 2 mg.

For `O=C1O[C@H]([C@@H](O)CO)C(O)=C1O` [vitamin C], in series [4], the “stability during application to porous media with piezoelectric apparatus” value was “destroyed”.
